Values joined by “and” are separate entries in the source; they are usually repeats but may differ in a detail not shown here. Equal values may be shown once. Read-outs that look alike come from different tables or passages of the source.
Legend:
NO formation = conditions: oral arginine, cited from earlier work
NO production = conditions: acute arginase-induced arginine deficiency; cited from earlier work
[1] = children with VOC; cited from earlier work
[2] = normal volunteers; cited from earlier work
[3] = cited from earlier work
[4] = Plasma arginine level after intravenous bolus citrulline in patients with sickle cell disease; assay type: in vivo, human; conditions: within one hour of bolus intravenous citrulline 20 mg/kg; all subjects
Method: (§1) Methods: Each cohort of participants received an intravenous bolus of 20 mg/kg of citrulline over five minutes with dose increments of 10 mg/kg until a target plasma citrulline level of 80 to 100 μmol/L. FIG. 1. Plasma samples were collected at certain time points for pharmacokinetic studies. Adverse events were followed according to the NCI Common Terminology Criteria for Adverse Events (CTCAE).

[5] = Safety / adverse events (NCI CTCAE) of intravenous citrulline in patients with sickle cell disease; assay type: in vivo, human
Method: (§2) Background: Hemolysis associated nitric oxide (NO) depletion plays a central role in the pathogenesis of vaso-occlusion in sickle cell disease (SCD). Citrulline is an effective NO booster, even during conditions of inflammation and acute arginase-induced arginine deficiency, characteristic of SCD.
as §1

[6] = Pharmacokinetics of intravenous bolus citrulline in patients with sickle cell disease; assay type: in vivo, human; conditions: for clearance: iv
Method: as §2, §1

[7] = oral twice daily, approximately 0.1 g/kg daily, steady state, cited from earlier work
[8] = Oral citrulline in ICU patients: reaching target citrulline level; assay type: in vivo, human; conditions: administered orally in an ICU
Description: Oral administration of citrulline obligates the citrulline to pass through the gut and then the liver which removes the citrulline. This is due to the absorption of the citrulline from the gut and transport directly to the liver by the hepatic portal vein in the first pass through the patient's system. […] This would require multiple dosing regimen to achieve a therapeutic plasma level of citrulline. Thus, it is preferable for citrulline therapy to administer the active agent in a manner which bypasses the gut.

[9] = inhaled, versus placebo; cited from earlier work
[10] = bolus intravenous citrulline in patients with SCD
[11] = Average of patients 1-4, 20 mg/kg intravenous bolus
[12] = individual patients, 20 mg/kg intravenous bolus over 5 minutes, 20 mg/kg

N=C(N)NCCC[C@H](N)C(=O)O [arginine]
increase of NO formation (NO formation; normal controls): 68%
change in NO (NO formation; steady-state SCD patients, not overcome by higher doses): paradoxical decrease in NO
NO production (NO production): did not increase NO production
pain scores [1]: lowered pain scores
parenteral opioid use [1]: reducing parenteral opioid use

NC(=O)NCCCC(N)C(=O)O (centres unmarked) [citrulline, 2-amino-5-(carbamoylamino)pentanoic acid]
circulating arginine concentrations versus oral arginine [2]: increases circulating arginine concentrations more than oral arginine
safety and plasma citrulline levels ([3]; intravenous citrulline (Barr 2007)): may be administered safely to increase and maintain plasma citrulline levels
safety and plasma citrulline levels ([3]; oral citrulline (Smith 2006)): may be administered safely to increase and maintain plasma citrulline levels
rise in arginine level (mean increment) [4]: 182%
NO production (NO production): increased NO production
microcirculatory flow (NO production): improved microcirculatory flow
other side effects ([5]; 20 mg/kg intravenous bolus, four participants): no other reported side effects
safety and tolerability [5, 10]: safe and well tolerated
transient drop of diastolic blood pressure ([5]; one subject, within 30 minutes of study drug, no intervention needed): > 20%
Krem [6, 11]: 1.06 h⁻¹
V [6, 11]: 0.50 L/kg
clearance (in words) [6, 10]: rapid clearance
mean peak level (plasma citrulline) ([6]; first cohort of four participants, intravenous bolus infusion of 20 mg/kg): 259 µmol/L
clearance ([6]; human, plasma, 20 mg/kg, Average of patients 1-4, 20 mg/kg intravenous bolus): 8.67 mL/min/kg
clearance ([6]; human, plasma, 20 mg/kg, individual patients, 20 mg/kg intravenous bolus over 5 minutes): 11.7 mL/min/kg
concentration at 4 h ([6]; human, plasma, 4 hours after the infusion, 20 mg/kg intravenous bolus, read-out: trough level (plasma citrulline)): 20 to 40 µM
CL [6, 12]: 0.51 L/h/kg and 0.41 L/h/kg and 0.46 L/h/kg
Krem [6, 12]: 1.01 1/hr (2×) and 1.34 1/hr and 0.89 1/hr
V [6, 12]: 0.70 L/kg and 0.38 L/kg and 0.46 L/kg (2×)
symptoms of well-being ([7]; ages 10-18): dramatic improvements
plasma arginine levels [7]: raised plasma arginine levels
total leukocyte and segmented neutrophil counts [7]: reductions in high total leukocyte and high segmented neutrophil counts toward or to within normal limits
patients who met the target level of citrulline [8]: 2 out of 3

[N]=O [iNO, nitric oxide]
effect on time-to-resolution of vaso-occlusive crisis [9]: no effect

Reference: patent publication US12329732B2, “Citrulline for treatment of sickle cell crisis” (Vanderbilt University, priority 2017, dated 2025)
